Measured values taken from patent US20230270877A1, “Combination Therapy” (Seagen Inc., priority 2020, published 2023).
Square brackets hold non-standard residues; d marks the D form. Peptide text beside a SMILES is read from it. * marks the point of attachment. Dolaproine = CO[C@@H]([C@@H]1CCCN1)[C@@H](C)C(=O)O; Dil = CC[C@H](C)[C@H](NC)[C@@H](CC(=O)O)OC; X1 = C[C@@H](N*)[C@@H](O)c1ccccc1; NMeV = CN[C@H](C(=O)O)C(C)C

Columns and labels:
A20 lymphoma cells = assay: Immunization with killed CD30-expressing A20 cells and A20 challenge (Example 24); format: in vivo; conditions: mice immunized 2 times with cells killed by the agent; compared to flash freezing; FIG. 24
Procedure: A20 cells expressing human CD30 were treated with CD30-Auristatin ADC (BV; SGN-35) or MMAE for 18 hrs. Alternatively, one aliquot of cells was f1ash frozen. Ficoll centrifugation of treated samples was performed to remove live cells. All samples were analyzed for apoptosis and viability by flow cytometry using annexin V/7AAD. Dying and dead cells were washed, resuspended in PBS, and intraperitoneally injected into mice. The mice were immunized 2 times, 7 days apart. Immunized mice rested for 7 additional days, and then were challenged with A20 lymphoma cells, and tumor growth or rejection was monitored over time.

CD40 = CD40 (Homo sapiens, UniProt P25942); conditions: cited from earlier work
Chain of CD40 (P25942 21-277): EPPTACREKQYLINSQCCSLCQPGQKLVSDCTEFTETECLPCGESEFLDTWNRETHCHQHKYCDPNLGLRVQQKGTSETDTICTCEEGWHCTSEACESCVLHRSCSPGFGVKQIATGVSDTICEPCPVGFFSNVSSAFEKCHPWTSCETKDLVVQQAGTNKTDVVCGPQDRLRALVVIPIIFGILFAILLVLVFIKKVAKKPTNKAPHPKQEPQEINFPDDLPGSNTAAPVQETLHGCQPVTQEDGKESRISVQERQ

[1] = tested on: acute myeloid leukemia (AML); conditions: administered alone; cited from earlier work
CD30+CD8 T cells = assay: Proliferation of activated CD30+CD8 T cells treated with CD30 directed vc-MMAE; format: cell-based, human; conditions: anti-CD3-CD28 beads + 10 ng/mL IL-2, 4 days; vs isotype control; FIG. 2
Procedure: Human primary CD8 T cells were labeled with CSFE and induced to undergo proliferation with anti-CD3-CD28 beads (1 bead per 4 T cells)+10 ng/mL IL-2 for 4 days. […] CD30+CD8 T cells were treated with either CD30 directed vc-MMAE (brentuximab vedotin; BV; SGN-35) or an isotype control. Cells were stained with LIVE/DEAD Fixable Dead Cell Stain (ThermoFisher) and live cells were counted via flow cytometry.

Farage cells = format: in vivo; conditions: single agent, SEA-CD70 3 mg/kg or SGN-35 1 mg/kg

For `CC[C@H](C)[C@@H]([C@@H](CC(=O)N1CCC[C@H]1[C@H](OC)[C@@H](C)C(=O)N[C@H](C)[C@@H](O)c1ccccc1)OC)N(C)C(=O)[C@@H](NC(=O)[C@@H](NC)C(C)C)C(C)C` [MMAE, N-methylvaline-valine-dolaisoleuine-dolaproine-norephedrine] (H-[NMeV]V[Dil][Dolaproine]-X1), the “immune responses rejecting implanted A20 cells” value (A20 lymphoma cells) was “stronger immune responses”.

For “CP-870,893: a humanized IgG2 agonist antibody to CD40”, the “activity in solid tumor indications” value (CD40; combined with paclitaxel or carboplatin or gemcitabine) is listed as “encouraging activity”.

In the case of “CT-011: anti-PD-1 antibody, a humanized antibody”, the “response in treating acute myeloid leukemia (AML) at relapse” value [1] is listed as “failed to show response”.

In the case of “Dacetuzumab: fucosylated humanized S2C6, agonistic CD40 monoclonal antibody”, the clinical activity (CD40; phase 1 study in NHL and phase 2 study in DLBCL) is listed as “some clinical activity”.

With “SGN-35: CD30-targeting ADC containing MMAE conjugated to the monoclonal antibody cAC10 [reference compound]” the “cell proliferation of primary human CD30+CD8 T cells” value (CD30+CD8 T cells) was “not significantly altered”, the “day at which tumors reached an average 5 fold increase of original size” value (Farage cells; day post implant, untreated 28.5) was 46 days and the “days post treatment at which tumors reached an average 5 fold increase” value (Farage cells; untreated 9.5) was 27 days post treatment. For the same compound, the “immune responses rejecting implanted A20 cells” value (A20 lymphoma cells) was “stronger immune responses”.
